What all share (type): functional
The subject of assay [1] is Parabacteroides distasonis. Nature of the assay: Antimicrobial activity against Parabacteroides distasonis by agar dilution method in presence of 5% laked sheep blood. For orientation: Agar dilution tests growth on a series of plates holding different concentrations.
The test system of a further assay is Clostridium perfringens. Nature of the assay: Antimicrobial activity against Clostridium perfringens ATCC 13124 by agar dilution method in presence of 5% laked sheep blood.
Assay [2] has as its system Prevotella melaninogenica. Put plainly: Antimicrobial activity against Prevotella melaninogenica by agar dilution method in presence of 5% laked sheep blood.
For assay [3], the system named is Peptoniphilus asaccharolyticus. Nature of the assay: Antimicrobial activity against Peptoniphilus asaccharolyticus by agar dilution method in presence of 5% laked sheep blood.
The test system of a further assay is Eggerthella lenta. Nature of the assay: Antimicrobial activity against Eggerthella lenta by agar dilution method in presence of 5% laked sheep blood.
A further assay concerns Bacteroides fragilis. Nature of the assay: Antimicrobial activity against Bacteroides fragilis by agar dilution method in presence of 5% laked sheep blood.
The next assay relates to Porphyromonas gingivalis. Nature of the assay: Antimicrobial activity against Porphyromonas gingivalis by agar dilution method in presence of 5% laked sheep blood.
A further assay deals with Phocaeicola vulgatus. Nature of the assay: Antimicrobial activity against Bacteroides vulgatus by agar dilution method in presence of 5% laked sheep blood.

Take `C[C@@H](O)[C@H]1C(=O)N2C(C(=O)O)=C(S[C@@H]3CN[C@H](C(=O)N(C)C)C3)[C@H](C)[C@H]12` [MEROPENEM]: the MIC50 (usually the lowest concentration that inhibits either 50% of growth or 50% of the strains tested, depending on the study) is 0.25 µg/mL in assay [1]; 0.125 µg/mL in assay [2]; no more than 0.015 µg/mL in assay [3]; 0.5 µg/mL in the assay with Eggerthella lenta; 0.25 µg/mL in the assay with Bacteroides fragilis; no more than 0.015 µg/mL in the assay on Porphyromonas gingivalis. Moreover, the MIC50 in the assay on Phocaeicola vulgatus amounted to 0.25 µg/mL. The MIC90 (in general, an inhibitory concentration at the 90% level, which refers to growth in some studies and to a panel of isolates in others) worked out at 4 µg/mL in assay [1]; 0.25 µg/mL in assay [2]; 0.125 µg/mL in assay [3]; 1 µg/mL with Eggerthella lenta; 0.5 µg/mL in the assay with Bacteroides fragilis; 0.03 µg/mL in the assay on Porphyromonas gingivalis. Further, the MIC90 with Phocaeicola vulgatus came out at 4 µg/mL. Moreover, the MIC (usually the least concentration at which growth counts as inhibited) in the assay with Clostridium perfringens was no more than 0.015 µg/mL.
On to `C[C@@H](O)[C@H]1C(=O)N2C(C(=O)O)=C(S[C@H]3C[C@@H](C(=O)N4CC[C@H](NC(=O)CNC(=N)N)C4)N(C)C3)[C@H](C)[C@H]12` [TOMOPENEM], for which the MIC50 was 0.5 µg/mL in assay [1]; 0.125 µg/mL in assay [2]; no more than 0.015 µg/mL in assay [3]; 0.5 µg/mL with Eggerthella lenta; 0.25 µg/mL with Bacteroides fragilis; 0.03 µg/mL with Porphyromonas gingivalis. Moreover, the MIC50 in the assay with Phocaeicola vulgatus worked out at 0.5 µg/mL. The MIC90 in assay [1] is 4 µg/mL; in assay [2], 0.5 µg/mL; in assay [3] it was 0.06 µg/mL; in the assay on Eggerthella lenta, 0.5 µg/mL; in the assay on Bacteroides fragilis it was 1 µg/mL; with Porphyromonas gingivalis, 0.06 µg/mL. Moreover, the MIC90 in the assay on Phocaeicola vulgatus was determined as 4 µg/mL. For the same compound, the minimal inhibitory concentration (MIC) in the assay on Clostridium perfringens amounted to 0.03 µg/mL.
Turning to `CC(=N)N1CC[C@H](SC2=C(C(=O)O)N3C(=O)[C@H]([C@@H](C)O)[C@H]3C2)C1`, the MIC50 in assay [1] is 1 µg/mL; in assay [2] it was 0.125 µg/mL; in assay [3] it was 0.03 µg/mL; in the assay on Eggerthella lenta it was 1 µg/mL; with Bacteroides fragilis it was 0.25 µg/mL; with Porphyromonas gingivalis, 0.06 µg/mL. The MIC50 in the assay on Phocaeicola vulgatus came to 1 µg/mL. In addition, the MIC90 in assay [1] was determined as 4 µg/mL; in assay [2], 0.25 µg/mL; in assay [3], 0.06 µg/mL; with Eggerthella lenta it was 2 µg/mL; in the assay with Bacteroides fragilis, 8 µg/mL; in the assay with Porphyromonas gingivalis, 0.06 µg/mL. Besides, the MIC90 in the assay with Phocaeicola vulgatus stood at 4 µg/mL. Besides, the minimum inhibitory concentration (MIC) in the assay with Clostridium perfringens was found to be 0.03 µg/mL.
Turning to `C[C@@H](O)[C@H]1C(=O)N2C(C(=O)O)=C(S[C@@H]3CN[C@H](CNS(N)(=O)=O)C3)[C@H](C)[C@H]12` [DORIPENEM], the MIC50 is 0.5 µg/mL in assay [1]; 0.06 µg/mL in assay [2]; no more than 0.015 µg/mL in assay [3]; 0.25 µg/mL with Eggerthella lenta; 0.25 µg/mL in the assay on Bacteroides fragilis; 0.03 µg/mL in the assay on Porphyromonas gingivalis. Besides, the MIC50 in the assay on Phocaeicola vulgatus stood at 0.5 µg/mL. In addition, the MIC90 was found to be 4 µg/mL in assay [1]; 0.125 µg/mL in assay [2]; 0.125 µg/mL in assay [3]; 0.25 µg/mL in the assay with Eggerthella lenta; 0.5 µg/mL with Bacteroides fragilis; 0.06 µg/mL in the assay on Porphyromonas gingivalis. Also, in the assay with Phocaeicola vulgatus, the MIC90 was found to be 4 µg/mL. Moreover, in the assay with Clostridium perfringens, the MIC worked out at 0.03 µg/mL.
Take `Cc1ncc([N+](=O)[O-])n1CCO` [METRONIDAZOLE]: the MIC50 in assay [1] stood at 0.5 µg/mL; in assay [2], 1 µg/mL; in assay [3], 1 µg/mL; with Eggerthella lenta it was 0.5 µg/mL; in the assay on Bacteroides fragilis, 0.5 µg/mL; in the assay with Porphyromonas gingivalis, 0.06 µg/mL. Further, in the assay with Phocaeicola vulgatus, the MIC50 is 0.5 µg/mL. The MIC90 in assay [1] was 1 µg/mL; in assay [2], 2 µg/mL; in assay [3], 2 µg/mL; in the assay with Eggerthella lenta it was 0.5 µg/mL; with Bacteroides fragilis, 1 µg/mL; in the assay on Porphyromonas gingivalis it was 0.25 µg/mL. Further, the MIC90 in the assay with Phocaeicola vulgatus is 1 µg/mL. Moreover, in the assay on Clostridium perfringens, the MIC is 1 µg/mL.

Source of the values: ChEMBL document CHEMBL1275576, “In vitro activity of tomopenem (CS-023/RO4908463) against anaerobic bacteria” (Antimicrob Agents Chemother, 2009).
